Test results: article PMC11475281, “A Novel Liver Cancer-Selective Histone Deacetylase Inhibitor Is Effective against Hepatocellular Carcinoma and Induces Durable Responses with Immunotherapy” (ACS Pharmacology & Translational Science, 2024)
Where two headings read alike, the source gives them in different places.

Tests used:
VERO cells = assay: Immunoblotting of cleaved Caspase 3; assay type: cell-based; conditions: same concentrations as in Hep-G2
Procedure: (§1) Figure 3 Effects of STR-V-53 on intracellular markers of HDAC inhibition, antitumor immune response, and apoptosis. (a) STR-V-53 upregulates the levels of acetylated H4 and tubulin in Hep-G2 cells. Hep-G2 cells were treated with DMSO or 0.1% DMSO solution of SAHA (1.25 μM) and STR-V-53 (1.25 μM, 2.5 μM). Cells were treated for 5 h before lysis. Data are from two independent experiments. (b) STR-V-53 upregulates PD-L1 and downregulates PD-1 expressions in Hep-G2 cells. Cells were treated with DMSO or 0.1% DMSO solution of SAHA (5 μM and 10 μM) and STR-V-53 (10 and 20 μM) for 24 h. (c) STR-V-53 and SAHA caused upregulation of the levels of CD54 in the Hep-G2 cell line. Cells were treated with DMSO or 0.1% DMSO solution of SAHA (5 and 10 μM) and STR-V-53 (5, 10, and 20 μM) for 24 h. […] Cells were treated with DMSO or 0.1% DMSO solution of SAHA (5 μM) and STR-V-53 (10 and 20 μM).

HDAC1 = HDAC1 (Homo sapiens, UniProt Q13547); assay: HDAC isoform inhibition (BPS Bioscience)
Hep-G2 cells = assay: Immunoblotting of acetylated histone H4 and α-tubulin; assay type: cell-based, human; conditions: for Acetylation status of histone H4 and α-tubulin: at 1/4 IC50 and 1/2 IC50
Excerpt: To determine the contributions of HDAC inhibition to the antiproliferative activities of the glycosylated HDACi compounds, immunoblotting was used to investigate the acetylation status of histone H4 and α-tubulin, biomarkers for HDAC class I and class IIb intracellular inhibition, respectively,[27] in Hep-G2 cells in response to exposure to representative compounds STR-V-53, STR-V-114, and STR-I-195. We used SAHA as a positive control for HDAC inhibition and GAPDH level as a protein loading control.
as §1
10-017-CV), supplemented with 10% fetal bovine serum (FBS) (Corning, 35-010-CV). Hep-G2 cells were cultured in phenol red-free Minimum Essential Medium (MEM) (Corning, 17-305-CV), supplemented with 10% fetal bovine serum (FBS). SK-Hep-1 in ATCC-formulated EMEM (ATCC® 30–2003™); Huh-7 in DMEM (containing 4 mM L-glutamine and 1 g/L glucose) with […]
Kupffer Cell Media (Sekisui XenoTech, LLC, Cat. #K8700). Cells were seeded into a 96-well plate (2000 counts/100uL) for 24 h prior to treatment and then treated with various drug concentrations for 72 h. All drugs were dissolved in media with DMSO concentration maintained at 1%. The effect of compounds on cell viability was measured using the MTS assay (CellTiter 96 Aqueous One Solution and CellTiter 96 Non-Radioactive Cell Proliferation Assays, Promega, Madison, WI) as described by the manufacturer. IC50s were determined using Prism GraphPad 8.
Western blot protocol was described in our previous works 24,25. In brief, Hep-G2 cells were seeded into a 6-well plate at 1*106/well in MEM for 24-48 h prior to treatment. Various concentrations of SAHA, STR-V-53, STR-V-114, and STR-I-195 solutions in DMSO were added to the cell culture such that the final DMSO level was 0.1%. Cells were treated for 24 h, washed with cold PBS, and lysed with RIPA buffer (120 µL) (VWR, VWRVN653 -100ML) containing phosphatase inhibitor (Fisher Thermo, A32957) and protease inhib itor (Fisher Thermo, A32955). The cell lysates were scraped, collected, and vortexed for 15 s, followed by sonication for 60 s. The lysate was centrifuged at 14000x rpm for 10 min, and the supernatants were collected. The total protein concentration was determined using a BCA protein assay kit (BioVision, K813-2500). Based on the results from the […], the lysates were diluted to make equal protein concentration, and 40 µg of each lysate was loaded to each wel l of the TGX […]
MIDI 4-20% gel (Biorad, cat. 5671093) and ran at 150 V for 70 min. […] After washing with TBS-T 3x5 mins, bands were quantified using the Odyssey CLx Image system. […]

Chain of HDAC1 (Q13547 whole entry, canonical isoform): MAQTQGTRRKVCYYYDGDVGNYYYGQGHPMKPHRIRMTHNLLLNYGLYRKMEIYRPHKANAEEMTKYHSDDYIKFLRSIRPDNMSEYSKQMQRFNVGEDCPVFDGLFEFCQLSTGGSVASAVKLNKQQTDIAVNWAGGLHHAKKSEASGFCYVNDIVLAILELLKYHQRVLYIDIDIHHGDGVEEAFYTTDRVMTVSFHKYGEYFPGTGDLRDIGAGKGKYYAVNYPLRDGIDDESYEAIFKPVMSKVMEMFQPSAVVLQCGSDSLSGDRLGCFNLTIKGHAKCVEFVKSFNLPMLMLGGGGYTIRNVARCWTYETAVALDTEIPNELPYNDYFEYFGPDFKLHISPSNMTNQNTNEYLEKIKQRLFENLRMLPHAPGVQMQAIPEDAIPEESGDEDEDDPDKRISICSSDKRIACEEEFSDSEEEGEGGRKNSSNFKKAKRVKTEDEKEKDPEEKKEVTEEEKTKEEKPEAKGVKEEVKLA

Row | SMILES | Caspase 3 cleavage (VERO cells) | IC50 (HDAC1; read-out: HDAC1 IC50, Table S1) [µM] | Acetylation of H4 and α-Tubulin (Hep-G2 cells; 0.5 μM) | Acetylation of H4 (Hep-G2 cells; 1.25 μM and 2.5 μM) | Acetylation of α-Tubulin (Hep-G2 cells; 1.25 μM and 2.5 μM) | IC50 (HDAC1) [µM] | Acetylation status of histone H4 and α-tubulin (Hep-G2 cells)
1 | O=C(CCCCCCC(=O)Nc1ccccc1)NO [SAHA, vorinostat, reference compound] | induced cleavage of Caspase 3 | – | – | – | – | – | –
2 | O=C(CCCCCCn1cc(-c2ccc(O[C@@H]3O[C@H](CO)[C@@H](O)[C@H](O)[C@H]3O)cc2)nn1)NO [STR-I-195] | did not induce cleavage of Caspase 3 | 0.0146 | did not show significant acetylation | mild acetylation | significant acetylation | – | –
3 | O=C(CCCCCCn1cc(-c2ccc(O[C@H]3O[C@H](CO)[C@@H](O)[C@H](O)[C@H]3O)cc2)nn1)NO [STR-V-53] | did not induce cleavage of Caspase 3 | – | – | – | – | 0.0243 | induced accumulation of acetylated H4 and acetylated tubulin
4 | O=C(CCCCCCn1cc(-c2ccc3cc(O[C@H]4O[C@H](CO)[C@@H](O)[C@H](O)[C@H]4O)ccc3c2)nn1)NO [STR-V-114] | – | 0.0203 | – | – | – | – | induced accumulation of acetylated H4 and acetylated tubulin
